Results on ten compounds are retold here after patent US20260022142A1, “MACROCYCLIC IMMUNOMODULATORS” (Bristol-Myers Squibb Company, priority 2022, published 2026).

Each structure is given as a SMILES string. Bridge positions count the residues as written; N and C are the ends. Square brackets hold non-standard residues; d marks the D form. Peptide text beside a SMILES is read from it. * marks the point of attachment. ξ: configuration not given here. Bip = N[C@@H](Cc1ccc(-c2ccccc2)cc1)C(=O)O; Phe(3-Me) = Cc1cccc(C[C@H](N)C(=O)O)c1; hArg = N=C(N)NCCCC[C@H](N)C(=O)O; Cha = N[C@@H](CC1CCCCC1)C(=O)O; Cit = NC(=O)NCCC[C@H](N)C(=O)O; aThr = C[C@H](O)[C@H](N)C(=O)O; Thr(3ξ) = CC(O)[C@H](N)C(=O)O; Carboxymethyl = O=C(O)C*; Orn = NCCC[C@H](N)C(=O)O; Aun = NCCCCCCCCCCC(=O)O; Dab = NCC[C@H](N)C(=O)O; Dap = NC[C@H](N)C(=O)O; AEEA = NCCOCCOCC(=O)O

As a reminder, the IC50 is the concentration that gives 50% inhibition.

This assay deals with T1, PD-1/PD-L1 interaction (PE-labeled human PD-L1-Ig binding to Jurkat cell line over-expressing human PD-1) (Homo sapiens, UniProt Q15116).
T1 construct: expressed in transfected cells; host or cells: Jurkat
T1 sequence (Q15116 25-288): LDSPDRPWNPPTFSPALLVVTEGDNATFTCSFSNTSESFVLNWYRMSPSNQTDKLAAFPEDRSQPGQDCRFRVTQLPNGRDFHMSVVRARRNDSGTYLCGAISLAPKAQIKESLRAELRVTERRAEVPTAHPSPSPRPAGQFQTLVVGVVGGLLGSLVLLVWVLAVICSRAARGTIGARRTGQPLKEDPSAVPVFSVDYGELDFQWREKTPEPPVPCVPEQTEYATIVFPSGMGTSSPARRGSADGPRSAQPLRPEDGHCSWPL
The assay is described as follows: Jurkat-PD-1 Cell Binding High-Content Screening Assay (CBA). The note with it: Jurkat cell line over-expressing human PD-1; PE-labeled PD-L1-Ig 20 nM final; read-out: Jurkat hPD1-PDL1 IC50. The class given is cell-based. Put shortly:
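Human PD-L1-Ig carrying a covalent PE label on its Ig tag serves as the probe, applied at 20 nM final to compound-treated (2 h, 37° C) Jurkat-hPD-1 cells in medium with 10% fetal calf serum. After one hour, fixation and nuclear staining precede high-content image analysis.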
Consider `Cc1cccc(C[C@@H]2NC(=O)[C@H](CC(=O)O)NC(=O)[C@H](Cc3ccc(OCC(=O)O)cc3)NC(=O)[C@H](CCCCNC(=N)N)NC(=O)CSC[C@@H](C(=O)NCCOCCOCC(=O)N[C@@H](CCN)C(=O)NCCCCCCCCCCC(=O)O)NC(=O)[C@H](CCCN)NC(=O)[C@H](C(C)C)NC(=O)[C@H](CC3CCCCC3)NC(=O)[C@H](CN)NC(=O)[C@@H](CC(C)C)NC(=O)[C@H](CCCN)NC(=O)[C@H](C(C)C)NC(=O)[C@H](Cc3ccc(-c4ccccc4)cc3)NC(=O)[C@H](C(C)C)NC2=O)c1` [Compound 3249] ({CH2CO}-[hArg]Y(Carboxymethyl)D[Phe(3-Me)]V[Bip]V[Orn][dL][Dap][Cha]V[Orn]C[AEEA][Dab][Aun]-OH; thioether N-14), for which the IC50 is 25.6 nM. Turning to `Cc1cccc(C[C@@H]2NC(=O)[C@H](CC(=O)O)NC(=O)[C@H](Cc3ccc(OCC(=O)O)cc3)NC(=O)[C@H](CCCCNC(=N)N)NC(=O)CSC[C@@H](C(=O)NCCOCCOCC(=O)N[C@@H](CCN)C(=O)NCCCCCCCCCCC(=O)O)NC(=O)[C@H](CCCN)NC(=O)[C@H](C(C)C)NC(=O)[C@H](CC3CCCCC3)NC(=O)[C@H](CCN)NC(=O)[C@@H](CC(C)C)NC(=O)[C@H](CCN)NC(=O)[C@H](C(C)C)NC(=O)[C@H](Cc3ccc(-c4ccccc4)cc3)NC(=O)[C@H](C(C)C)NC2=O)c1` [Compound 3251] ({CH2CO}-[hArg]Y(Carboxymethyl)D[Phe(3-Me)]V[Bip]V[Dab][dL][Dab][Cha]V[Orn]C[AEEA][Dab][Aun]-OH; thioether N-14), the IC50 came to 5.7 nM. Under `Cc1cccc(C[C@@H]2NC(=O)[C@H](CC(=O)O)NC(=O)[C@H](Cc3ccc(OCC(=O)O)cc3)NC(=O)[C@H](CCCCNC(=N)N)NC(=O)CSC[C@@H](C(=O)N[C@@H](CCN)C(=O)NCCOCCOCC(=O)NCCCCCCCCCCC(=O)O)NC(=O)[C@H](CCCN)NC(=O)[C@H](C(C)C)NC(=O)[C@H](CC3CCCCC3)NC(=O)[C@H](CCN)NC(=O)[C@@H](CC(C)C)NC(=O)[C@H](CCN)NC(=O)[C@H](C(C)C)NC(=O)[C@H](Cc3ccc(-c4ccccc4)cc3)NC(=O)[C@H](C(C)C)NC2=O)c1` [Compound 3252] ({CH2CO}-[hArg]Y(Carboxymethyl)D[Phe(3-Me)]V[Bip]V[Dab][dL][Dab][Cha]V[Orn]C[Dab][AEEA][Aun]-OH; thioether N-14) stands 7.4 nM. To `CC(C)C[C@H]1NC(=O)[C@H](CCN)NC(=O)[C@H](C(C)C)NC(=O)[C@H](Cc2ccc(-c3ccccc3)cc2)NC(=O)[C@H](C(C)C)NC(=O)[C@H](Cc2c[nH]c3ccccc23)NC(=O)[C@H](CC(=O)O)NC(=O)[C@H](Cc2ccc(OCC(=O)O)cc2)NC(=O)[C@H](C(C)O)NC(=O)CSC[C@@H](C(=O)N[C@@H](CCN)C(=O)NCCCCCCCCCCC(=O)O)NC(=O)[C@H](CCCNC(N)=O)NC(=O)[C@H](C(C)C)NC(=O)[C@H](CC2CCCCC2)NC(=O)[C@H](CCN)NC1=O` (stereo partly drawn) [Compound 3253] ({CH2CO}-[Thr(3ξ)]Y(Carboxymethyl)DWV[Bip]V[Dab][dL][Dab][Cha]V[Cit]C[Dab][Aun]-OH; thioether N-14) belongs 8.8 nM; to `Cc1cccc(C[C@@H]2NC(=O)[C@H](CC(=O)O)NC(=O)[C@H](Cc3ccc(OCC(=O)O)cc3)NC(=O)[C@H](C(C)O)NC(=O)CSC[C@@H](C(=O)N[C@H](CC(N)=O)C(=O)NCCOCCOCC(=O)NCCCCCCCCCCC(=O)O)NC(=O)[C@H](CO)NC(=O)[C@H](C(C)C)NC(=O)[C@H](CC3CCCCC3)NC(=O)[C@H](CCN)NC(=O)[C@@H](CC(C)C)NC(=O)[C@H](CCCN)NC(=O)[C@H](C(C)C)NC(=O)[C@H](Cc3ccc(-c4ccccc4)cc3)NC(=O)[C@H](C(C)C)NC2=O)c1` (stereo partly drawn) [Compound 3254] ({CH2CO}-[Thr(3ξ)]Y(Carboxymethyl)D[Phe(3-Me)]V[Bip]V[Orn][dL][Dab][Cha]VSC[dN][AEEA][Aun]-OH; thioether N-14), 10.9 nM. Under `CC(C)C[C@H]1NC(=O)[C@H](CCN)NC(=O)[C@H](C(C)C)NC(=O)[C@H](Cc2ccc(-c3ccccc3)cc2)NC(=O)[C@H](C(C)C)NC(=O)[C@H](Cc2c[nH]c3ccccc23)NC(=O)[C@H](CC(=O)O)NC(=O)[C@H](Cc2ccc(OCC(=O)O)cc2)NC(=O)[C@H](CCCCNC(=N)N)NC(=O)CSC[C@@H](C(=O)N[C@@H](CCN)C(=O)NCCCCCCCCCCC(=O)O)NC(=O)[C@H](CCCCN)NC(=O)[C@H](C(C)C)NC(=O)[C@H](CC2CCCCC2)NC(=O)[C@H](CCN)NC1=O` [Compound 3255] ({CH2CO}-[hArg]Y(Carboxymethyl)DWV[Bip]V[Dab][dL][Dab][Cha]VKC[Dab][Aun]-OH; thioether N-14) stands 13.2 nM; under `Cc1cccc(C[C@@H]2NC(=O)[C@H](CC(=O)O)NC(=O)[C@H](Cc3ccc(OCC(=O)O)cc3)NC(=O)[C@H]([C@H](C)O)NC(=O)CSC[C@@H](C(=O)N[C@H](CC(N)=O)C(=O)NCCOCCOCC(=O)NCCCCCCCCCCC(=O)O)NC(=O)[C@H](CCCCN)NC(=O)[C@H](C(C)C)NC(=O)[C@H](CC3CCCCC3)NC(=O)[C@H](CCN)NC(=O)[C@@H](CC(C)C)NC(=O)[C@H](CCN)NC(=O)[C@H](C(C)C)NC(=O)[C@H](Cc3ccc(-c4ccccc4)cc3)NC(=O)[C@H](C(C)C)NC2=O)c1` [Compound 3256] ({CH2CO}-[aThr]Y(Carboxymethyl)D[Phe(3-Me)]V[Bip]V[Dab][dL][Dab][Cha]VKC[dN][AEEA][Aun]-OH; thioether N-14), 4 nM. On to `Cc1cccc(C[C@@H]2NC(=O)[C@H](CC(=O)O)NC(=O)[C@H](Cc3ccc(OCC(=O)O)cc3)NC(=O)[C@H](C(C)O)NC(=O)CSC[C@@H](C(=O)NCCOCCOCC(=O)NCCCCCCCCCCC(=O)O)NC(=O)[C@H](CCCCN)NC(=O)[C@H](C(C)C)NC(=O)[C@H](CC3CCCCC3)NC(=O)[C@H](CCN)NC(=O)[C@@H](CC(C)C)NC(=O)[C@H](CCN)NC(=O)[C@H](C(C)C)NC(=O)[C@H](Cc3ccc(-c4ccccc4)cc3)NC(=O)[C@H](C(C)C)NC2=O)c1` (stereo partly drawn) [Compound 3257] ({CH2CO}-[Thr(3ξ)]Y(Carboxymethyl)D[Phe(3-Me)]V[Bip]V[Dab][dL][Dab][Cha]VKC[AEEA][Aun]-OH; thioether N-14), for which the IC50 worked out at 5.3 nM. Under `CC(C)C[C@@H]1NC(=O)[C@H](Cc2c[nH]c3ccccc23)NC(=O)[C@H](CC(=O)O)NC(=O)[C@H](Cc2ccc(OCC(=O)O)cc2)NC(=O)[C@H](CCCCNC(=N)N)NC(=O)CSC[C@@H](C(=O)NCCOCCOCC(=O)N[C@@H](CCN)C(=O)NCCCCCCCCCCC(=O)O)NC(=O)[C@H](CCCCN)NC(=O)[C@H](C(C)C)NC(=O)[C@H](CC2CCCCC2)NC(=O)[C@H](CCN)NC(=O)[C@@H](C)NC(=O)[C@H](CCN)NC(=O)[C@H](C(C)C)NC(=O)[C@H](Cc2ccc(-c3ccccc3)cc2)NC1=O` [Compound 3258] ({CH2CO}-[hArg]Y(Carboxymethyl)DWL[Bip]V[Dab][dA][Dab][Cha]VKC[AEEA][Dab][Aun]-OH; thioether N-14) stands 37.3 nM. To `Cc1cccc(C[C@@H]2NC(=O)[C@H](CC(=O)O)NC(=O)[C@H](Cc3ccc(OCC(=O)O)cc3)NC(=O)[C@H](CCCCNC(=N)N)NC(=O)CSC[C@@H](C(=O)N[C@@H](CCN)C(=O)NCCCCCCCCCCC(=O)O)NC(=O)[C@H](CCCN)NC(=O)[C@H](C(C)C)NC(=O)[C@H](CC3CCCCC3)NC(=O)[C@H](CCN)NC(=O)[C@@H](CC(C)C)NC(=O)[C@H](CCCN)NC(=O)[C@H](C(C)C)NC(=O)[C@H](Cc3ccc(-c4ccccc4)cc3)NC(=O)[C@H](C(C)C)NC2=O)c1` [Compound 3259] ({CH2CO}-[hArg]Y(Carboxymethyl)D[Phe(3-Me)]V[Bip]V[Orn][dL][Dab][Cha]V[Orn]C[Dab][Aun]-OH; thioether N-14) belongs 10.9 nM.
